Measured values: BindingDB's records for doi:10.1021/jm00121a001 (University of Utah, 1989)
pKi: −log10 of the molar value.

Assay: Inhibition of compound against Guanine-7-methyl transferase

Nc1nc(O)c2cc(CSC[C@H]3O[C@@H](n4cnc5c(N)ncnc54)[C@H](O)[C@@H]3O)[nH]c2n1 showed a pKi of 4.03.
